# Assay results as given in paper PMC5404848 (Cell Chemical Biology, 2017).
# Like-named read-outs stand apart in the source and are kept apart here.
# Legend:
# [1] = target: T1, human recombinant USP2a catalytic domain (residues 258-605) (Homo sapiens, UniProt O75604); assay: Ub-AMC hydrolysis assay; conditions: 30 min pre-incubation; for IC50: read-out: IC50, USP2a activity, Ub-AMC Assay
# T1 sequence (O75604 258-605): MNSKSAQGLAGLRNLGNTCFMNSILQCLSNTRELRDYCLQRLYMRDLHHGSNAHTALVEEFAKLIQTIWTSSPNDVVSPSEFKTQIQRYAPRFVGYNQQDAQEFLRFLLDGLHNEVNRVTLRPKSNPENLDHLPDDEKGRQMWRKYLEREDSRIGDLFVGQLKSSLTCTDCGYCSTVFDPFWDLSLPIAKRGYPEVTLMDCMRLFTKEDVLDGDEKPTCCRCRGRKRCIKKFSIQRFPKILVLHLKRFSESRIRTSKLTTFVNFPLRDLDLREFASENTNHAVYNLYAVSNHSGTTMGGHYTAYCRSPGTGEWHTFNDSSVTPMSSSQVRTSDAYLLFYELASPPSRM
# Protocol: (§4) The assays were performed using Infinite 200 PRO – Tecan plate reader and 96-well, black Greiner microplates in a 100 μl reaction volume.
# Ub-AMC-hydrolysis assay was performed in a reaction buffer (50 mM Tris/HCl, pH=7.5, 1 mM EDTA, 1 mM MgCl2).
# (§5) All assays were performed simultaneously in triplicate and results are presented as mean values ± SD.
# [2] = test system: HCT116 p53^−/− cells; assay: MTT assay (cell viability), 6 days treatment; type: cell-based, Human
# Protocol: (§1) To test the biological activity of the compounds, we performed MTT (3-(4,5-dimethylthiazol-2-yl)-2,5-diphenyltetrazolium bromide) and lactate dehydrogenase (LDH) release assays. […] To track not only the toxic (lethal) but also growth-inhibitory (GI) effect in the MTT assay, we treated the cells for 6 days.
# (§2) For MTT assay, the cells were seeded on 96-well transparent plates and treated the next day with the compounds or DMSO for 6 days. Thiazolyl Blue Tetrazolium Bromide (MTT, Sigma Aldrich) was added for 60 minutes to a final concentration of […]. The medium was removed and MTT crystals were dissolved in isopropanol supplemented with 40 mM HCl. The absorbance was measured with Infinite 200 microplate reader (Tecan Group Ltd.) at 570 nm with the reference wavelength 650 nm for background subtraction.
# [3] = test system: HCT116 p53^wt cells; assay: MTT assay (cell viability), 6 days treatment; type: cell-based, Human; conditions: for LD50 (concentration killing 50% of cells): Homo sapiens, HCT-116, 144 h, read-out: LD50; for growth-inhibitory (GI) properties: cell-based assay (discussion)
# Protocol: as §1, §2
# [4] = target: T1, human recombinant USP2a catalytic domain (residues 258-605); assay: Di-Ub K63-2 hydrolysis (FRET) assay; conditions: read-out: IC50, USP2a activity, Di-Ub Assay; Di-Ub K63-2, 30 min pre-incubation
# Protocol: as §4
# Di-Ub K63-2 hydrolysis assay was performed in 50 mM Tris/HCl pH=7.5, 1mM DTT. USP2a (20 nM) was preincubated with an excess of tested compound for 30 min. Fluorescence changes were recorded at excitation and emission wavelengths of 540 nm and 580 nm respectively, immediately after Di-Ub (200 nM, LifeSensors) addition.
# as §5
# [5] = test system: HCT116 p53^wt cells; assay: Caspase 3/7 activity (Caspase-Glo 3/7); type: cell-based, Human; conditions: staurosporine treatment (apoptosis inducer control)
# Protocol: To evaluate whether the observed effects are accompanied by the induction of apoptosis, we examined the activation of caspases 3 and 7 in HCT116 p53^wt cells.
# The cells were plated on the 96-well white, flat bottom plates (Falcon) and treated with DMSO, LCAHA or Staurosporine. For the detection of caspase activity Caspase-Glo 3/7 Assay System was used (Promega) according to the manufacturer’s instructions.
# [6] = test system: USP2a; design: method as in Nicholson et al., 2008; conditions: ref Nicholson et al., 2008; read-out: EC50 (previously reported); cited from earlier work
# [7] = target: T2, USP7 (Homo sapiens, UniProt Q93009); assay: Ub-AMC assay, USP7 selectivity; type: biochemical; conditions: 10 μM
# T2 construct: Human USP7 catalytic domain (residues 208-561) was cloned into the pGEX-6P-1 vector; GST (N, cleaved yes); made in house; host or cells: E. coli BL21 (DE3)
# T2 sequence (Q93009 208-561): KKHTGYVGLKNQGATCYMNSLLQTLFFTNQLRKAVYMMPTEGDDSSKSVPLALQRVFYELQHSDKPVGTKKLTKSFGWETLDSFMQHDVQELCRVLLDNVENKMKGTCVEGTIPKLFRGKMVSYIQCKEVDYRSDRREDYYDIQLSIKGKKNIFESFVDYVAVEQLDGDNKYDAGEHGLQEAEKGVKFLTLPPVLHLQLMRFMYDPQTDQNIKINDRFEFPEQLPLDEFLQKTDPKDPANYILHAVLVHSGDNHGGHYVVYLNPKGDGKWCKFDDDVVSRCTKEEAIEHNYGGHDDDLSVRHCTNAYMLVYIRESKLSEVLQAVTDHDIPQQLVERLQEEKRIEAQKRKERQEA
# Protocol: Cells were grown in LB medium containing 100 μg/ml ampicillin at 37 °C and induced with 0.5 mM IPTG at OD600 of 0.7-0.9 and cultured overnight at 16 °C. Cells were harvested by centrifugation. Next cells were resuspended in buffer A (50 mM Tris/HCl pH 9.0, 50 mM NaCl, 3 mM β-mercapthoetanol) and disrupted by sonication. Cell lysate were clarified by centrifugation (45 000 g, 40 min.) and dialyzed against buffer A. Supernatant was loaded onto Q-Sepharose column and proteins were eluted with NaCl gradient. Fractions containing GST fused USP7 were combined, concentrated and dialyzed against buffer (50 mM Tris/HCl pH 7.0, 50 mM NaCl, 3 mM β-mercapthoetanol). During dialysis protein was digested with PreScission Protease (GE Healthcare). USP7 protein and cleaved GST were separated on Mono Q HR 10/10 column (GE Healthcare). The last purification step consisted of size exclusion chromatography on HiLoad 16/60 Superdex 75 prep grade (GE Healthcare) in 50 mM Tris/HCl, 150 mM NaCl, 2 mM DTT.
# [8] = test system: HCT116 p53^wt cells; assay: Western blot analysis of protein expression; type: cell-based, Human; conditions: for expression of p27: 5 or 20 μM, 48 hr, HCT116 cells (Figures 2A and S3A); for expression of proteins encoded by p53-target genes (MDM2 and p21) and of p53: 24 or 48 hr
# [9] = test system: HCT116 p53^−/− cells; assay: Western blot analysis of protein expression; type: cell-based, Human; conditions: 5 or 20 μM, 48 hr
# Source text: (§3) The progression from G1 to S phase relies largely on the expression and activity of D cyclins. To verify whether the observed impairment in cell-cycle progression following LCAHA treatment is associated with D cyclins, we investigated the expression of cyclins D1 and D3 in HCT116 p53^wt and HCT116 p53^−/− cells.
# [10] = test system: HCT116 p53^wt cells; assay: Western blot analysis of protein expression; type: cell-based, Human; conditions: 5 or 20 μM, 48 hr
# Source text: as §3
# [11] = Solubility problems in cell line experiment or enzymatic assay; type: physicochemical; conditions: in either the cell line experiment or the enzymatic assay
# [12] = Homo sapiens, HCT-116, 144 h, read-out: LD50
structure (smiles),measurement,setting,value
"C[C@H](CCC(=O)NCCS(=O)(=O)O)[C@H]1CC[C@H]2[C@@H]3[C@H](O)C[C@@H]4C[C@H](O)CC[C@]4(C)[C@H]3C[C@H](O)[C@]12C [TCAS, taurocholic acid, reference compound]","IC50, USP2a activity, Ub-AMC Assay",[1],not active
"C[C@H](CCC(N)=O)[C@H]1CC[C@H]2[C@@H]3CC[C@@H]4C[C@H](O)CC[C@]4(C)[C@H]3CC[C@]12C [LCANH2, 3-hydroxylithocholanamide]",LD50,[2]; [12],41.8 ± 2.7 µM
same,LD50 (concentration killing 50% of cells),[3],24.5 ± 0.9 µM
same,IC50,[1],27.9 ± 1 µM
same,IC50,[4],16.7 ± 1.3 µM
"CN[C@@H]1C[C@H]2O[C@@](C)([C@@H]1OC)n1c3ccccc3c3c4c(c5c6ccccc6n2c5c31)C(=O)NC4 [staurosporine, reference compound]",activity of caspases 3 and 7,[5],strong increase
"C[C@H](CCC(=O)N1CCOCC1)[C@H]1CC[C@H]2[C@@H]3CC[C@@H]4C[C@H](O)CC[C@]4(C)[C@H]3CC[C@]12C [LCAMR, N-lithocholanolyl Morpholine]",LD50,[2]; [12],7.9 ± 0.7 µM
same,LD50 (concentration killing 50% of cells),[3],8.2 ± 0.7 µM
same,IC50,[1],> 100 µM
same,IC50,[4],> 100 µM
"C[C@H](CCC(=O)NCC(=O)O)[C@H]1CC[C@H]2[C@@H]3CC[C@@H]4C[C@H](O)CC[C@]4(C)[C@H]3CC[C@]12C [LCAGLY, N-(3-hydroxylithocholanolyl)glycine]",IC50,[1],> 50 µM
same,IC50,[4],> 50 µM
"Cc1ccc(/C=C2\CNC/C(=C\c3ccc(C)cc3)C2=O)cc1 [NSC 632839, reference compound]",IC50,[1],39.1 ± 6.4 µM
same,IC50,[4],> 50 µM
same,EC50,[6],45 ± 4 µM
"C[C@H](CCC(=O)O)[C@H]1CC[C@H]2[C@@H]3[C@H](O)C[C@@H]4C[C@H](O)CC[C@]4(C)[C@H]3C[C@H](O)[C@]12C [CGG, cholic acid, reference compound]","IC50, USP2a activity, Ub-AMC Assay",[1],not active
same,IC50,[4],> 100 µM
"C[C@H](CCC(=O)O)[C@H]1CC[C@H]2[C@@H]3CC[C@@H]4C[C@H](O)CC[C@]4(C)[C@H]3CC[C@]12C [LCA, Lithocholic acid, reference compound]",growth-inhibitory (GI) properties,[3],inactive in the inhibition of cell growth
same,inhibition of USP7 protein activity,[7],no inhibition
same,expression of p27,[8],not altered
same,expression of proteins encoded by p53-target genes (MDM2 and p21) and of p53,[8],did not induce
same,cyclin D1 expression,[9],did not affect
same,cyclin D3 expression,[9],significantly increased
same,cyclin D1 expression,[10],did not affect
same,cyclin D3 expression,[10],significantly increased
same,IC50,[1],31.1 ± 3.4 µM
same,IC50,[4],32 ± 3.2 µM
"C[C@H](CCC(=O)NCC#N)[C@H]1CC[C@H]2[C@@H]3CC[C@@H]4C[C@H](O)CC[C@]4(C)[C@H]3CC[C@]12C [LCACN, N-(cyanomethyl)-3-hydroxylithocholanamide]",LD50,[2]; [12],29.9 ± 3.2 µM
same,LD50 (concentration killing 50% of cells),[3],28 ± 0.7 µM
same,IC50,[1],7.4 ± 1.2 µM
same,IC50,[4],13.9 ± 2.3 µM
same,solubility,[11],solubility problems
"COC(=O)CC[C@@H](C)[C@H]1CC[C@H]2[C@@H]3CC[C@@H]4C[C@H](O)CC[C@]4(C)[C@H]3CC[C@]12C [LCAME, Methyl 3-Hydroxylithocholanoate]",LD50,"[2]; HCT116 p53^−/−, MTT assay, 6 days",35.1 ± 4.8 µM
same,LD50,"[3]; HCT116^wt, MTT assay, 6 days",20.5 ± 1.1 µM
same,IC50,[1],> 50 µM
same,IC50,[4],> 50 µM
"CC(=O)O[C@@H]1CC[C@@]2(C)[C@H](CC[C@@H]3[C@@H]2CC[C@]2(C)[C@@H]([C@H](C)CCC(=O)O)CC[C@@H]32)C1 [LCAE, 3-Acetoxy-Lithocholic Acid]",growth-inhibitory (GI) properties,[3],no GI properties
same,expression of p27,[8],not altered
same,expression of proteins encoded by p53-target genes (MDM2 and p21) and of p53,[8],did not induce
same,cyclin D3 expression,[9],no effect
same,cyclin D1 expression,[10],decreased the expression of the protein
same,cyclin D3 expression,[10],no effect
"C[C@H](CCC(=O)O)[C@H]1CC[C@H]2[C@@H]3[C@@H](O)C[C@@H]4C[C@H](O)CC[C@]4(C)[C@H]3CC[C@]12C [UDCA, ursodeoxycholic acid, reference compound]","IC50, USP2a activity, Ub-AMC Assay",[1],not active
same,IC50,[4],> 100 µM
"C[C@H](CCC(=O)O)[C@H]1CC[C@H]2[C@@H]3CC[C@@H]4CC(=O)CC[C@]4(C)[C@H]3CC[C@]12C [LCAK, 3-Oxo-Lithocholic Acid]",IC50,[1],32 ± 1.8 µM
same,IC50,[4],33.1 ± 3.2 µM
